{"source": "patent US8030498B2", "about": "“Benzoylpyrazole compounds and herbicides containing them” (Ishihara Sangyo Kaisha, Ltd., priority 2005, dated 2011)", "format_in_all_cases": "in vivo", "settings_in_all_cases": "visually observed 17th to 23rd day after application", "key": {"[1]": {"system": "greenfoxtail (Setaria viridis L.)", "assay": "Test Example 1: foliar treatment, growth inhibition rate, greenfoxtail", "description": "(§1) Upland field soil was put into a 1/170,000 hectare pot, and seeds of various plants were sown. When the respective plants reached predetermined leaf stage ((1) barnyardgrass (Echinochloa crus-galli L.); 0.8 to 2.5 leaf stage, (2) crabgrass (Digitaria sanguinalis L.): 0.5 to 3.0 leaf stage, (3) greenfoxtail (Setaria viridis L.): 1.0 to 3.0 leaf stage, (4) redroot pigweed (Amaranthus retroflexus L.): cotyledon stage to 2.0 leaf stage, (5) prickly sida (Sida spinosa L.): cotyledon stage to 1.1 leaf stage, (6) velvetleaf (Abutilon theophrasti MEDIC.): cotyledon stage to 1.5 leaf stage, (7) rice (Oryza sativa L.): 1.0 to 2.5 leaf stage, (8) wheat (Triticum spp.): 1.7 to 3.4 leaf stage, (9) corn (Zea mays L.): 2.0 to 3.5 leaf stage, and (10) soybean (Glycine max Merr.): primary leaf stage to 0.3 leaf stage), wettable powders or emulsifiable concentrates of the compounds of the present invention prepared in accordance with a conventional preparation method, were weighed so that the active ingredients became the prescribed amounts, and diluted with water in an amount corresponding to 500 liter per 1 hectare. 0.1 vol % of an agricultural spreader was further added to the respective diluted liquids, followed by foliar treatment with a small sprayer.\n(§2) On the 17th to 23rd day after application, the state of growth of the respective plants was visually observed, and the herbicidal effect was evaluated in accordance with a growth inhibition rate (%) of 0 (equivalent to the non-treated area) to 100% (complete kill)."}, "wheat (Triticum spp.)": {"system": "wheat (Triticum spp.)", "assay": "Test Example 1: foliar treatment, growth inhibition rate, wheat", "description": "as §1, §2"}, "corn (Zea mays L.)": {"system": "corn (Zea mays L.)", "assay": "Test Example 1: foliar treatment, growth inhibition rate, corn", "description": "as §1, §2"}, "[2]": {"system": "crabgrass (Digitaria sanguinalis L.)", "assay": "Test Example 1: foliar treatment, growth inhibition rate, crabgrass", "description": "as §1, §2"}, "[3]": {"system": "barnyardgrass (Echinochloa crus-galli L.)", "assay": "Test Example 1: foliar treatment, growth inhibition rate, barnyardgrass", "description": "as §1, §2"}, "[4]": {"system": "redroot pigweed (Amaranthus retroflexus L.)", "assay": "Test Example 1: foliar treatment, growth inhibition rate, redroot pigweed", "description": "as §1, §2"}, "[5]": {"system": "velvetleaf (Abutilon theophrasti MEDIC.)", "assay": "Test Example 1: foliar treatment, growth inhibition rate, velvetleaf", "description": "as §1, §2"}, "rice (Oryza sativa L.)": {"system": "rice (Oryza sativa L.)", "assay": "Test Example 1: foliar treatment, growth inhibition rate, rice", "description": "as §1, §2"}, "[6]": {"system": "prickly sida (Sida spinosa L.)", "assay": "Test Example 1: foliar treatment, growth inhibition rate, prickly sida", "description": "as §1, §2"}, "[7]": {"system": "soybean (Glycine max Merr.)", "assay": "Test Example 1: foliar treatment, growth inhibition rate, soybean", "description": "as §1, §2"}}}
{"smiles": "CCSC(=O)Oc1c(C(=O)c2ccc(S(C)(=O)=O)c(CCCOC)c2C)cnn1C", "note": "[compound 226]", "values": [{"measurement": "Growth inhibition rate (%) Greenfoxtail", "setting": "[1]; 31 g/ha active ingredient", "result": 95, "unit": "%"}, {"measurement": "Growth inhibition rate (%) Wheat", "setting": "wheat (Triticum spp.); 31 g/ha active ingredient", "result": 0, "unit": "%"}, {"measurement": "Growth inhibition rate (%) Corn", "setting": "corn (Zea mays L.); 31 g/ha active ingredient", "result": 0, "unit": "%"}, {"measurement": "Growth inhibition rate (%) Crabgrass", "setting": "[2]; 31 g/ha active ingredient", "result": 95, "unit": "%"}, {"measurement": "Growth inhibition rate (%) Barnyardgrass", "setting": "[3]; 31 g/ha active ingredient", "result": 100, "unit": "%"}, {"measurement": "Growth inhibition rate (%) redroot pigweed", "setting": "[4]; 31 g/ha active ingredient", "result": 95, "unit": "%"}, {"measurement": "Growth inhibition rate (%) Velvetleaf", "setting": "[5]; 31 g/ha active ingredient", "result": 80, "unit": "%"}, {"measurement": "Growth inhibition rate (%) Rice", "setting": "rice (Oryza sativa L.); 31 g/ha active ingredient", "result": 100, "unit": "%"}, {"measurement": "Growth inhibition rate (%) Prickly sida", "setting": "[6]; 31 g/ha active ingredient", "result": 70, "unit": "%"}, {"measurement": "Growth inhibition rate (%) Soybean", "setting": "[7]; 31 g/ha active ingredient", "result": 100, "unit": "%"}]}
{"smiles": "CCSC(=O)Oc1c(C(=O)c2ccc(S(C)(=O)=O)c(CC3OCCO3)c2C)cnn1C", "note": "[compound 238]", "values": [{"measurement": "Growth inhibition rate (%) Greenfoxtail", "setting": "[1]; 63 g/ha active ingredient", "result": 98, "unit": "%"}, {"measurement": "Growth inhibition rate (%) Wheat", "setting": "wheat (Triticum spp.); 63 g/ha active ingredient", "result": 10, "unit": "%"}, {"measurement": "Growth inhibition rate (%) Corn", "setting": "corn (Zea mays L.); 63 g/ha active ingredient", "result": 0, "unit": "%"}, {"measurement": "Growth inhibition rate (%) Crabgrass", "setting": "[2]; 63 g/ha active ingredient", "result": 98, "unit": "%"}, {"measurement": "Growth inhibition rate (%) Barnyardgrass", "setting": "[3]; 63 g/ha active ingredient", "result": 100, "unit": "%"}, {"measurement": "Growth inhibition rate (%) redroot pigweed", "setting": "[4]; 63 g/ha active ingredient", "result": 100, "unit": "%"}, {"measurement": "Growth inhibition rate (%) Velvetleaf", "setting": "[5]; 63 g/ha active ingredient", "result": 100, "unit": "%"}, {"measurement": "Growth inhibition rate (%) Rice", "setting": "rice (Oryza sativa L.); 63 g/ha active ingredient", "result": 90, "unit": "%"}, {"measurement": "Growth inhibition rate (%) Prickly sida", "setting": "[6]; 63 g/ha active ingredient", "result": 98, "unit": "%"}, {"measurement": "Growth inhibition rate (%) Soybean", "setting": "[7]; 63 g/ha active ingredient", "result": 98, "unit": "%"}]}
{"smiles": "C=C(C)CSC(=O)Oc1c(C(=O)c2ccc(S(C)(=O)=O)c(C(=O)OC)c2C)cnn1CC", "note": "[compound 101]", "values": [{"measurement": "Growth inhibition rate (%) Greenfoxtail", "setting": "[1]; 31 g/ha active ingredient", "result": 100, "unit": "%"}, {"measurement": "Growth inhibition rate (%) Wheat", "setting": "wheat (Triticum spp.); 31 g/ha active ingredient", "result": 10, "unit": "%"}, {"measurement": "Growth inhibition rate (%) Corn", "setting": "corn (Zea mays L.); 31 g/ha active ingredient", "result": 30, "unit": "%"}, {"measurement": "Growth inhibition rate (%) Crabgrass", "setting": "[2]; 31 g/ha active ingredient", "result": 100, "unit": "%"}, {"measurement": "Growth inhibition rate (%) Barnyardgrass", "setting": "[3]; 31 g/ha active ingredient", "result": 100, "unit": "%"}, {"measurement": "Growth inhibition rate (%) redroot pigweed", "setting": "[4]; 31 g/ha active ingredient", "result": 100, "unit": "%"}, {"measurement": "Growth inhibition rate (%) Velvetleaf", "setting": "[5]; 31 g/ha active ingredient", "result": 98, "unit": "%"}, {"measurement": "Growth inhibition rate (%) Rice", "setting": "rice (Oryza sativa L.); 31 g/ha active ingredient", "result": 98, "unit": "%"}, {"measurement": "Growth inhibition rate (%) Prickly sida", "setting": "[6]; 31 g/ha active ingredient", "result": 70, "unit": "%"}, {"measurement": "Growth inhibition rate (%) Soybean", "setting": "[7]; 31 g/ha active ingredient", "result": 90, "unit": "%"}]}
{"smiles": "CCSC(=O)Oc1c(C(=O)c2ccc(S(C)(=O)=O)c(C=CC#N)c2C)cnn1C", "note": "[compound 229]", "values": [{"measurement": "Growth inhibition rate (%) Greenfoxtail", "setting": "[1]; 63 g/ha active ingredient", "result": 100, "unit": "%"}, {"measurement": "Growth inhibition rate (%) Wheat", "setting": "wheat (Triticum spp.); 63 g/ha active ingredient", "result": 50, "unit": "%"}, {"measurement": "Growth inhibition rate (%) Corn", "setting": "corn (Zea mays L.); 63 g/ha active ingredient", "result": 60, "unit": "%"}, {"measurement": "Growth inhibition rate (%) Crabgrass", "setting": "[2]; 63 g/ha active ingredient", "result": 100, "unit": "%"}, {"measurement": "Growth inhibition rate (%) Barnyardgrass", "setting": "[3]; 63 g/ha active ingredient", "result": 100, "unit": "%"}, {"measurement": "Growth inhibition rate (%) redroot pigweed", "setting": "[4]; 63 g/ha active ingredient", "result": 100, "unit": "%"}, {"measurement": "Growth inhibition rate (%) Velvetleaf", "setting": "[5]; 63 g/ha active ingredient", "result": 100, "unit": "%"}, {"measurement": "Growth inhibition rate (%) Rice", "setting": "rice (Oryza sativa L.); 63 g/ha active ingredient", "result": 95, "unit": "%"}, {"measurement": "Growth inhibition rate (%) Prickly sida", "setting": "[6]; 63 g/ha active ingredient", "result": 98, "unit": "%"}, {"measurement": "Growth inhibition rate (%) Soybean", "setting": "[7]; 63 g/ha active ingredient", "result": 98, "unit": "%"}]}
{"smiles": "CCSC(=O)Oc1c(C(=O)c2ccc(S(C)(=O)=O)c(CC(N)=S)c2C)cnn1C", "note": "[compound 232]", "values": [{"measurement": "Growth inhibition rate (%) Greenfoxtail", "setting": "[1]; 63 g/ha active ingredient", "result": 95, "unit": "%"}, {"measurement": "Growth inhibition rate (%) Wheat", "setting": "wheat (Triticum spp.); 63 g/ha active ingredient", "result": 0, "unit": "%"}, {"measurement": "Growth inhibition rate (%) Corn", "setting": "corn (Zea mays L.); 63 g/ha active ingredient", "result": 0, "unit": "%"}, {"measurement": "Growth inhibition rate (%) Crabgrass", "setting": "[2]; 63 g/ha active ingredient", "result": 95, "unit": "%"}, {"measurement": "Growth inhibition rate (%) Barnyardgrass", "setting": "[3]; 63 g/ha active ingredient", "result": 90, "unit": "%"}, {"measurement": "Growth inhibition rate (%) Velvetleaf", "setting": "[5]; 63 g/ha active ingredient", "result": 90, "unit": "%"}, {"measurement": "Growth inhibition rate (%) Rice", "setting": "rice (Oryza sativa L.); 63 g/ha active ingredient", "result": 95, "unit": "%"}, {"measurement": "Growth inhibition rate (%) Prickly sida", "setting": "[6]; 63 g/ha active ingredient", "result": 70, "unit": "%"}, {"measurement": "Growth inhibition rate (%) Soybean", "setting": "[7]; 63 g/ha active ingredient", "result": 90, "unit": "%"}]}
{"smiles": "CCSC(=O)Oc1c(C(=O)c2ccc(S(C)(=O)=O)c(OCC3OCCO3)c2Cl)cnn1CC", "note": "[compound 227]", "values": [{"measurement": "Growth inhibition rate (%) Greenfoxtail", "setting": "[1]; 63 g/ha active ingredient", "result": 100, "unit": "%"}, {"measurement": "Growth inhibition rate (%) Wheat", "setting": "wheat (Triticum spp.); 63 g/ha active ingredient", "result": 0, "unit": "%"}, {"measurement": "Growth inhibition rate (%) Corn", "setting": "corn (Zea mays L.); 63 g/ha active ingredient", "result": 0, "unit": "%"}, {"measurement": "Growth inhibition rate (%) Crabgrass", "setting": "[2]; 63 g/ha active ingredient", "result": 100, "unit": "%"}, {"measurement": "Growth inhibition rate (%) Barnyardgrass", "setting": "[3]; 63 g/ha active ingredient", "result": 100, "unit": "%"}, {"measurement": "Growth inhibition rate (%) redroot pigweed", "setting": "[4]; 63 g/ha active ingredient", "result": 100, "unit": "%"}, {"measurement": "Growth inhibition rate (%) Velvetleaf", "setting": "[5]; 63 g/ha active ingredient", "result": 100, "unit": "%"}, {"measurement": "Growth inhibition rate (%) Rice", "setting": "rice (Oryza sativa L.); 63 g/ha active ingredient", "result": 30, "unit": "%"}, {"measurement": "Growth inhibition rate (%) Prickly sida", "setting": "[6]; 63 g/ha active ingredient", "result": 60, "unit": "%"}, {"measurement": "Growth inhibition rate (%) Soybean", "setting": "[7]; 63 g/ha active ingredient", "result": 95, "unit": "%"}]}
{"smiles": "CCSC(=O)Oc1c(C(=O)c2ccc(S(C)(=O)=O)c(Cl)c2C)cnn1CC", "note": "[compound 71]", "values": [{"measurement": "Growth inhibition rate (%) Greenfoxtail", "setting": "[1]; 31 g/ha active ingredient", "result": 60, "unit": "%"}, {"measurement": "Growth inhibition rate (%) Wheat", "setting": "wheat (Triticum spp.); 31 g/ha active ingredient", "result": 10, "unit": "%"}, {"measurement": "Growth inhibition rate (%) Corn", "setting": "corn (Zea mays L.); 31 g/ha active ingredient", "result": 0, "unit": "%"}, {"measurement": "Growth inhibition rate (%) Crabgrass", "setting": "[2]; 31 g/ha active ingredient", "result": 40, "unit": "%"}, {"measurement": "Growth inhibition rate (%) Barnyardgrass", "setting": "[3]; 31 g/ha active ingredient", "result": 70, "unit": "%"}, {"measurement": "Growth inhibition rate (%) redroot pigweed", "setting": "[4]; 31 g/ha active ingredient", "result": 70, "unit": "%"}, {"measurement": "Growth inhibition rate (%) Velvetleaf", "setting": "[5]; 31 g/ha active ingredient", "result": 60, "unit": "%"}, {"measurement": "Growth inhibition rate (%) Rice", "setting": "rice (Oryza sativa L.); 31 g/ha active ingredient", "result": 60, "unit": "%"}, {"measurement": "Growth inhibition rate (%) Prickly sida", "setting": "[6]; 31 g/ha active ingredient", "result": 60, "unit": "%"}, {"measurement": "Growth inhibition rate (%) Soybean", "setting": "[7]; 31 g/ha active ingredient", "result": 60, "unit": "%"}]}
